In paper PMC6054424, “Expression and purification of a functional heteromeric GABAA receptor for structural studies” (PLoS ONE, 2018):

B1: GluClα-EGFP (α subunit of the glutamate-gated chloride channel from C. elegans, EGFP in the M3/M4 loop) (receptor, UniProt G5EBR3 21-461, looked up)
chain: QQARTKSQDIFEDDNDNGTTTLESLARLTSPIHIPIEQPQTSDSKILAHLFTSGYDFRVRPPTDNGGPVVVSVNMLLRTISKIDVVNMEYSAQLTLRESWIDKRLSYGVKGDGQPDFVILTVGHQIWMPDTFFPNEKQAYKHTIDKPNVLIRIHNDGTVLYSVRISLVLSCPMYLQYYPMDVQQCSIDLASYAYTTKDIEYLWKEHSPLQLKVGLSSSLPSFQLTNTSTTYCTSVTNTGIYSCLRTTIQLKREFSFYLLQLYIPSCMLVIVSWVSFWFDRTAIPARVTLGVTTLLTMTAQSAGINSQLPPVSYIKAIDVWIGACMTFIFCALLEFALVNHIANKQGVERKARTEREKAEIPLLQNLHNDVPTKVFNQEEKVRTVPLNRRQMNSFLNLLETKTEWNDISKRVDLISRALFPVLFFVFNILYWSRFGQQNVLF
notes: glutamate-gated chloride channel α subunit (GluClα), C. elegans; source: Xenopus oocytes injected with synthetic mRNA, in C12M-solubilised oocytes; not shown: EGFP, internal (M3/M4 loop)

Tests used:
[1] = target: T1, GABAA receptor α1/β1 (α1 subunit) (Rattus norvegicus, UniProt P15431+P62813, P15431:DEL334-439/P15431:INS334GT/P62813:DEL341-408/P62813:INS341T); test: radioligand saturation binding by scintillation proximity assay on purified receptor in L-MNG
T1 construct: gene Gabra1; purified α1/β1 receptor with M3/M4 loop truncations (α1-LT: Y341-P408 replaced with Thr; β1-LT: K334-K439 replaced with Gly-Thr), C-terminal His8 tag; with GABAA receptor β1 subunit (Gabrb1, P15431)
T1 sequence (P62813 with tags, fused parts or gaps DEL341-408/INS341T): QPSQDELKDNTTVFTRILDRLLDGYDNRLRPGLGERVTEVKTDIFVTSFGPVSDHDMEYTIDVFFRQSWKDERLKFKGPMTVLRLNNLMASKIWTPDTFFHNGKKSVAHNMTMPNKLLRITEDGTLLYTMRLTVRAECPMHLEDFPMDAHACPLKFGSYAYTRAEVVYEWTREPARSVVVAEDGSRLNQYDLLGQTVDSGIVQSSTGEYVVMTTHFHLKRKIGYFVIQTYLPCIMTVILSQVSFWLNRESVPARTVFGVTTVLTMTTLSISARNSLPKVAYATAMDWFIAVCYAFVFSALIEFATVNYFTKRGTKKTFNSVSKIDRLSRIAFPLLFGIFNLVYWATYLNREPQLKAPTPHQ
T1 sequence (P15431 with tags, fused parts or gaps DEL334-439/INS334GT): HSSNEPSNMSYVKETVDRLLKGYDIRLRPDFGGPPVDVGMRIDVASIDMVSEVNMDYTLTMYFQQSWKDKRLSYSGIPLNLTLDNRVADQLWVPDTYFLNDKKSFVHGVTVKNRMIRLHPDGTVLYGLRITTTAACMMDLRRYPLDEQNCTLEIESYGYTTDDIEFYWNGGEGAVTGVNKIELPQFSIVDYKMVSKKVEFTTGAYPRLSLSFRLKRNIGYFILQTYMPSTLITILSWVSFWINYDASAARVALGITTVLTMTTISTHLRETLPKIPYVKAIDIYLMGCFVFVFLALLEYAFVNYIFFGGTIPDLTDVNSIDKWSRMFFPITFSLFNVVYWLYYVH

[2] = target: the molecule itself; test: SEC; fluorescence detection SEC (FSEC) of 8-12 oocytes solubilised with 40 mM C12M; Superose6 10/300 GL in TBS pH 8.0, 1 mM C12M, 1 mM EDTA; GFP fluorescence of the tagged subunit followed; ferritin and EGFP as standards

Molecule	Kd [1] [nM]	stoichiometry N [2]
NCc1cc(=O)[nH]o1 [muscimol]	24 ± 1.1	–
B1	–	5
